Assay [1] concerns the target replication of MDV-1 by Qβ replicase (Escherichia virus Qbeta, UniProt P14647). Put plainly: Inhibition of MDV-1 replication by dyes in linear-phase Qβ replicase reactions. The class given is biochemical, bacteriophage Qβ. The following applies: for ability to inhibit the replication of MDV-1: linear-phase reactions, template RNA in excess over enzyme. On the procedure:
A number of dyes, including ethidium bromide, ethidium bromide homodimer, propidium iodide, proflavine, quinacrine, Hoescht 33258 (bis-benzamidine),dimidium bromide and acridine orange, were tested for their ability to inhibit the replication of MDV-1 in linear-phase reactions, i.e., where the template RNA is present in excess over the enzyme and the amount of replicated RNA thus increases linearly with time. […] One of the strongest inhibitors, propidium iodide, was selected for further study.

Assay [2] addresses T1, replication of wild type MDV-1 RNA by Qβ replicase (Escherichia virus Qbeta, UniProt P14647).
T1 construct: made in house
Description: Effect of propidium iodide on replication of wild type MDV-1 RNA in a Qβ replicase preparation (32P-CTP incorporation time course). The class given is biochemical, bacteriophage Qβ. On the procedure:
Propidium iodide was tested for its effect on the replication of wild type RNA in a preparation of Qβ replicase. Propidium iodide in an amount of either 0, 1, or 3 μg/ml was added to a reaction buffer containing: 90 mM Tris HCl (pH7.5), 14 mM MgCl2, 0.4 mM each ATP, GTP, UTP, and CTP, and 10 μCi α- ^32 P-CTP. The Qβ replicase reaction was initiated in each sample by addition of 1.2 μg of Qβ replicase prepared according to the method of Eoyang and August, (1972), ibid. Aliquots of the reaction mixture were withdrawn every 5 minutes and spotted on DE81 filters (Schleicher & Schuell Inc., Keene, N.H.). The spotted filters were washed repeatedly with 0.5M NaPO4, (pH7.0) to remove unincorporated nucleotide. The filters were counted for Cerenkov radiation by standard procedures in a scintillation counter. Addition of propidium iodide delayed the point in time at which levels of incorporation resulting from the replication of wild type MDV-1 template became detectable.

Regarding `CN1CCN(c2ccc3[nH]c(-c4ccc5[nH]c(-c6ccc(O)cc6)nc5c4)nc3c2)CC1` [Hoescht 33258, Hoescht 33258 (bis-benzamidine)], the “ability to inhibit the replication of MDV-1” value in assay [1] is “except Hoescht 33258, inhibited”.

For `CN(C)c1ccc2cc3ccc(N(C)C)cc3nc2c1` [acridine orange], the “ability to inhibit the replication of MDV-1” value in assay [1] was “inhibited”.

Consider `C[n+]1c(-c2ccccc2)c2cc(N)ccc2c2ccc(N)cc21` [dimidium bromide], for which the “ability to inhibit the replication of MDV-1” value in assay [1] is “inhibited”.

With `Cl.Cl.Nc1ccc2c(c1)c(-c1ccccc1)[n+](CCCNCCNCCC[n+]1c(-c3ccccc3)c3cc(N)ccc3c3ccc(N)cc31)c1cc(N)ccc21.[Cl-].[Cl-]` [ethidium bromide homodimer], in assay [1], the “ability to inhibit the replication of MDV-1” value is listed as “inhibited”.

Consider `CC[n+]1c(-c2ccccc2)c2cc(N)ccc2c2ccc(N)cc21` [ethidium bromide], for which the “ability to inhibit the replication of MDV-1” value in assay [1] is “inhibited”.

For the compound `Nc1ccc2cc3ccc(N)cc3nc2c1` [proflavine], the “ability to inhibit the replication of MDV-1” value in assay [1] is “inhibited”.

`CC[N+](C)(CC)CCC[n+]1c(-c2ccccc2)c2cc(N)ccc2c2ccc(N)cc21` [propidium iodide]: the inhibition (in general, the change of the read-out against control, counted positive when it falls) at 1 µg/mL in assay [2] (propidium iodide 1 μg/ml, read-out: inhibition of the rate of replication in the geometric phase) lay in the range of 20 to 50%. The “delay of the appearance of replicated product” value in assay [2] (propidium iodide 1 μg/ml, wild type MDV-1 template) was 2 to 5 min. In assay [2] (propidium iodide 3μg/ml), the “reduction in the rate of replication” value was around 3 fold. Moreover, the “delay of the appearance of product” value in assay [2] (propidium iodide 3μg/ml, wild type MDV-1 template) is on record as “about 20 minutes”. The compound further showed an inhibition at 3 µg/mL in assay [1] (dye concentration about 3μg/ml) of 70%. Besides, in assay [1], the “ability to inhibit the replication of MDV-1” value is reported as “inhibited”.

Regarding `CCN(CC)CCCC(C)Nc1c2ccc(Cl)cc2nc2ccc(OC)cc12` (stereo not shown) [quinacrine], the “ability to inhibit the replication of MDV-1” value in assay [1] was “inhibited”.

Source of the values: patent US5556751A, “Selective amplification system using Q-β replicase” (Amoco Corporation, priority 1994, dated 1996).
